# Legend:
# [1] = Drug level in Beagle dog thymus at 5 mg/kg, sc after 3 months; assay type: ADME, organism-based, Canis lupus familiaris; set-up: dose 5 mg/kg, route subcutaneous; details: read-out: Drug uptake
# [2] = Drug level in female Beagle dog spleen at 200 mg/kg, sc after 3 months; assay type: ADME, organism-based, Canis lupus familiaris; set-up: dose 200 mg/kg, route subcutaneous; details: read-out: Drug uptake
# [3] = Cmax in Beagle dog at 5 mg/kg, sc after 176 days; assay type: ADME, organism-based, Canis lupus familiaris; set-up: dose 5 mg/kg, route subcutaneous; details: in vivo
# [4] = AUC (0 to last) in female dog at 400 mg administered intramuscularly after 85 days; details: plasma, im
# [5] = Ratio of drug level in spleen to plasma in male Beagle dog at 200 mg/kg administered intramuscularly after 3 months; assay type: ADME, organism-based, Canis lupus familiaris; set-up: dose 200 mg/kg, route intramuscular; details: im
# [6] = Ratio of drug level in thymus to plasma in female Beagle dog at 200 mg/kg, sc after 3 months; assay type: ADME, organism-based, Canis lupus familiaris; set-up: dose 200 mg/kg, route subcutaneous
# [7] = tested on: Canis familiaris; experiment: Toxicity in Beagle dog assessed as abscess formation at 20 mg/kg administered intramuscularly after 3 months; assay type: organism-based, Canis lupus familiaris; set-up: dose 20 mg/kg, route intramuscular; details: in vivo, im, 2191.5 h
# [8] = Drug level in Beagle dog spleen at 5 mg/kg, sc after 3 months; assay type: ADME, organism-based, Canis lupus familiaris; set-up: dose 5 mg/kg, route subcutaneous; details: read-out: Drug uptake
# [9] = Drug level in male Beagle dog spleen at 400 mg/kg, sc after 1 month; assay type: ADME, organism-based, Canis lupus familiaris; set-up: dose 400 mg/kg, route subcutaneous; details: read-out: Drug uptake
# [10] = Drug level in Beagle dog liver at 5 mg/kg, sc after 3 months; assay type: ADME, organism-based, Canis lupus familiaris; set-up: dose 5 mg/kg, route subcutaneous; details: read-out: Drug uptake
# [11] = Drug level in Beagle dog muscle at non-injected site at 5 mg/kg administered intramuscularly after 6 months; assay type: ADME, organism-based, Canis lupus familiaris, Muscle tissue; set-up: dose 5 mg/kg, route intramuscular; details: im, read-out: Drug uptake
# [12] = Drug level in male Beagle dog thymus at 400 mg/kg administered intramuscularly after 3 months; assay type: ADME, organism-based, Canis lupus familiaris; set-up: dose 400 mg/kg, route intramuscular; details: im, read-out: Drug uptake
# [13] = Ratio of drug level in thymus to plasma in female Beagle dog at 200 mg/kg administered intramuscularly after 1 month; assay type: ADME, organism-based, Canis lupus familiaris; set-up: dose 200 mg/kg, route intramuscular; details: im
# [14] = tested on: Plasma; experiment: (§1) Plasma concentration in Beagle dog at 5 mg/kg administered intramuscularly after 6 months; assay type: ADME, organism-based, Canis lupus familiaris; set-up: dose 5 mg/kg, route intramuscular; details: in vivo, im, 4383 h, BLD = below limit of detection
# [15] = as §1; assay type: ADME, organism-based, Canis lupus familiaris; set-up: dose 5 mg/kg, route intramuscular; details: im
# [16] = Drug level in male Beagle dog spleen at 400 mg/kg, sc after 3 months; assay type: ADME, organism-based, Canis lupus familiaris; set-up: dose 400 mg/kg, route subcutaneous; details: read-out: Drug uptake
# [17] = Drug level in female Beagle dog thymus at 400 mg/kg, sc after 1 month; assay type: ADME, organism-based, Canis lupus familiaris; set-up: dose 400 mg/kg, route subcutaneous; details: read-out: Drug uptake
# [18] = Drug level in Beagle dog muscle at non-injected site at 5 mg/kg, sc after 3 months; assay type: ADME, organism-based, Canis lupus familiaris, Muscle tissue; set-up: dose 5 mg/kg, route subcutaneous; details: read-out: Drug uptake
# [19] = Drug level in female Beagle dog spleen at 200 mg/kg, sc after 1 month; assay type: ADME, organism-based, Canis lupus familiaris; set-up: dose 200 mg/kg, route subcutaneous; details: read-out: Drug uptake
# [20] = Ratio of drug level in thymus to plasma in male Beagle dog at 400 mg/kg, sc after 3 months; assay type: ADME, organism-based, Canis lupus familiaris; set-up: dose 400 mg/kg, route subcutaneous
# [21] = Drug level in male Beagle dog thymus at 400 mg/kg administered intramuscularly after 1 month; assay type: ADME, organism-based, Canis lupus familiaris; set-up: dose 400 mg/kg, route intramuscular; details: im, read-out: Drug uptake
# [22] = Ratio of drug level in spleen to plasma in male Beagle dog at 200 mg/kg administered intramuscularly after 1 month; assay type: ADME, organism-based, Canis lupus familiaris; set-up: dose 200 mg/kg, route intramuscular; details: im
# [23] = Drug level in Beagle dog muscle at non-injected site at 5 mg/kg administered intramuscularly after 3 months; assay type: ADME, organism-based, Canis lupus familiaris, Muscle tissue; set-up: dose 5 mg/kg, route intramuscular; details: im, read-out: Drug uptake
# [24] = Ratio of drug level in lymph node iliac to plasma in Beagle dog at 5 mg/kg, sc after 6 months; assay type: ADME, organism-based, Canis lupus familiaris; set-up: dose 5 mg/kg, route subcutaneous
# [25] = Drug level in Beagle dog liver at 5 mg/kg administered intramuscularly after 6 months; assay type: ADME, organism-based, Canis lupus familiaris; set-up: dose 5 mg/kg, route intramuscular; details: im, read-out: Drug uptake
# [26] = Tmax in female dog at 400 mg administered intramuscularly after 29 days; details: in vivo, im
# [27] = Drug level in Beagle dog muscle at injected site at 5 mg/kg, sc after 3 months; assay type: ADME, organism-based, Canis lupus familiaris, Muscle tissue; set-up: dose 5 mg/kg, route subcutaneous; details: read-out: Drug uptake
# [28] = Ratio of drug level in spleen to plasma in male Beagle dog at 400 mg/kg, sc after 1 month; assay type: ADME, organism-based, Canis lupus familiaris; set-up: dose 400 mg/kg, route subcutaneous
structure (smiles),measurement,setting,value
Cc1cc(/C=C/C#N)cc(C)c1Nc1ccnc(Nc2ccc(C#N)cc2)n1 [RILPIVIRINE],concentration at 2191.5 h,[1],43.6 ng/g
same,concentration at 2191.5 h,[2],49.5 ng/g
same,Cmax,[3],31.4 ng/mL
same,AUC(0-t) at 2040 h,[4],265 µg·h/mL
same,Kp at 2191.5 h,[5],2.7
same,Kp at 2191.5 h,[6],4
same,Activity,[7],Non-toxic
same,concentration at 2191.5 h,[8],9.7 ng/g
same,concentration at 730.5 h,[9],569 ng/g
same,concentration at 2191.5 h,[10],45.6 ng/g
same,concentration at 4383 h,[11],< 5 ng/g
same,concentration at 2191.5 h,[12],76 ng/g
same,Kp at 730.5 h,[13],5.7
same,Cp,[14],BLD
same,concentration at 4383 h,[15],< 1 ng/mL
same,concentration at 2191.5 h,[16],11.3 ng/g
same,concentration at 730.5 h,[17],1200 ng/g
same,concentration at 2191.5 h,[18],18.5 ng/g
same,concentration at 730.5 h,[19],14.5 ng/g
same,Kp at 2191.5 h,[20],3.5
same,concentration at 730.5 h,[21],634 ng/g
same,Kp at 730.5 h,[22],1.8
same,concentration at 2191.5 h,[23],84.1 ng/g
same,Kp at 4383 h,[24],7.7
same,concentration at 4383 h,[25],11.6 ng/g
same,Tmax,[26],8.3 h
same,concentration at 2191.5 h,[27],467 ng/g
same,Kp at 730.5 h,[28],2.9
